Laboratory results from patent EP2966448B1, “METHOD FOR THE PREDICTION OR PROGNOSIS OF THE RESPONSE OF A HUMAN SUBJECT SUFFERING FROM CANCER TO TREATMENT WITH AN ANTAGONIST OF THE NK1 RECEPTOR” (priority 2013, dated 2014).
Read-outs that look alike come from different tables or passages of the source.

Columns and labels:
[1] = system: Lung carcinoma (small cell lung carcinoma); assay: Inhibition of primary tumor cell cultures vs Kras mutation (Example 2); format: cell-based, human; details: Lung carcinoma (small cell lung carcinoma), 100 micromolar
Procedure: (§1) To obtain tumor cells from human primary tumors we used the method described in De Bari et al. (De Bari et al. 2001). Briefly, small pieces of the tumors were digested into a hyaluronidase solution (Sigma-Aldrich, USA) at a concentration of 1 mg/ml during 15 minutes at 37°C, and then they were treated with 6 mg/ml of collagenase type IV (Invitrogen) during 2 hours at 37°C. Consecutively, cells were washed, and resuspended in the DMEM culture medium with high concentration of glucose (Dulbecco's Modified Eagle's Medium, Invitrogen) supplemented with 1% of antibiotics-antimycotics (Invitrogen) and with 1% of sodium pyruvate (Invitrogen), and the cells were seeded in culture slides at a concentration of 10.000 cells per square centimeter. When cells reached confluence, the adherent cells were separated using sterile trypsin at 0,5% (Invitrogen) and they were used among passages 3 and 9. For the assays shown next, tumor cells were seeded on slides at a concentration of 25.000 cells per well. A total of 6 wells containing the tumor cells were used as survival control. […] All the cultures were kept during 48 hours and later on recollected for their analysis.
(§2) In each case the presence or not of mutations in K-ras gene was determined.
(§3) To determine the existence of mutations in the K-ras gene DNA from cancer tumor cells was extracted from samples obtained from the different cancer tumor cells, using DNA extraction kits from Takara (Madison, WI, US) or Ambion (Huntingdon, Cambridgeshire, United Kingdom), following the manufacturer's instructions, and as it has been previously published (Di Fiore F, et al. 2007). Consecutively it was analyzed by sequencing the exon 2 of the KRAS gene, , by means of PCR amplification from previously extracted cancer tumor DNA, using the following sense primer (SEQ ID NO. 15): 5'-[sequence]-3' and anti-sense primer (SEQ ID NO. 16): 5'-[sequence]-3'. After the purification using the Qiagen extraction kit, the PCR products were sequenced using the Big Dye Terminator Kit V3.1 (Applied Biosystems, Foster City, CA, U.S.) and an ABI Prism 377 or 3100 DNA sequencer (Applied Biosystems). The presence of a heterozygous mutation in the KRAS gene in cancer tumor cells of the cultures was defined as the appearance of a mutant peak of a height of at least a third of the wild type. All the sequence analysis were executed at least twice in two independent PCR.
(§4) The antibody against NK1 receptor (Table 16) was used at 1/50 concentration. The percentages of inhibition are expressed in percentage of variation in relation to control ± standard deviation.

[2] = system: Thyroid carcinoma (papillary carcinoma); assay: as above; format: cell-based, human; details: Thyroid carcinoma (papillary carcinoma), 100 micromolar
Procedure: as §1, §2, §3, §4

[3] = system: Thyroid carcinoma (folliculary type); assay: Inhibition of primary tumor cell cultures (48 hours) vs NK1 receptor immunostaining (Example 1); format: cell-based; details: Homo sapiens, 1 micromolar, read-out: Percentage of inhibition of cell cultures
Procedure: (§5) Cell cultures. To obtain tumor cells from human primary tumors we used the method described in De Bari et al. (De Bari et al. 2001). Briefly, small pieces of the tumors were digested into a hyaluronidase solution (Sigma-Aldrich, USA) at a concentration of 1 mg/ml during 15 minutes at 37°C, and then they were treated with 6 mg/ml of collagenase type IV (Invitrogen) during 2 hours at 37°C. Consecutively, cells were washed, and resuspended in the DMEM culture medium with high concentration of glucose (Dulbecco's Modified Eagle's Medium, Invitrogen) supplemented with 1% of antibiotics-antimycotics (Invitrogen) and with 1% of sodium pyruvate (Invitrogen), and the cells were seeded in culture slides at a concentration of 10.000 cells per square centimeter. When cells reached confluence, the adherent cells were separated using sterile trypsin at 0,5% (Invitrogen) and they were used among passages 3 and 9. For the assays shown next, tumor cells were seeded on slides at a concentration of 25.000 cells per well. A total of 6 wells containing the tumor cells were used as survival control. […] All the cultures were kept during 48 hours and later on recollected for their analysis.
(§6) Immunohistochemistry techniques. The presence of NK1 receptors was also analyzed using immunohistochemistry techniques. Briefly, a sample of each of the cultures of the cell lines used in the present invention, was centrifuged (5 minutes at 1.500 rpm) and the pellet obtained was dehydrated using increasing concentrations of ethanol and, finally, xylol. Then, said dehydrated samples were embedded in paraffin, creating a block of cells. Such paraffin blocks were cut with a microtome at 5 microns thickness, and were placed on microscope slides adequate to perform immunohistochemistry techniques. Consecutively, they were de-paraffinized by immersing them in xylol, to be finally hydrated using a solution containing decreasing concentrations of ethanol, and finally submerged them into water. […] After this, the samples were left to cool down at room temperature for 10 minutes. The endogenous peroxidase activity was blocked with 3% peroxide of hydrogen for 30 minutes at room temperature. After washing the samples with 0.05 M of Tris buffer, they were incubated with 10% non-immune pork serum at for 30 minutes at room temperature. To analyze the expression of NK1 receptors, the cellular samples were incubated in the presence of anti-NK1 antibodies (S8305, Sigma-Aldrich) diluted 1:1000, overnight at 4°C. Afterwards, the samples were washed in Tris buffer 0.05 M at room temperature. The next step was the addition of Envision System-HRP (Dako) reagents for 30 minutes at room temperature. Then, the samples were washed again in Tris buffer 0.05 M and the immunoreactivity was visualized through light microscopy with a chromogenic solution containing 3,3'-Diaminobenzidine (DAB+; Dako, USA). To differentiate the cell nuclei, they were slightly stained with hematoxylin. As negative control, it was used samples not incubated with the primary antibody anti-NK1, which was replaced by non-immune serum. All the samples were evaluated.
(§7) To value the immunostaining in each of the cases six cuts were performed to be analyzed by the immunohistochemistry technique. In each of the six cuts, it was counted cells in 20 fields (magnification 400x) using an Olympus microscope (model CX31). In each field it was counted the total number of cells and the number of cells presenting immunostaining, calculating afterwards the percentage of cells which presented immunostaining.

Hodgkin lymphoma = assay: as above; format: cell-based; details: Homo sapiens, 1 micromolar, read-out: Percentage of inhibition of cell cultures
Procedure: as §5, §6, §7

Renal cell carcinoma = assay: as above; format: cell-based; details: Homo sapiens, 1 micromolar, read-out: Percentage of inhibition of cell cultures
Procedure: as §5, §6, §7

[4] = system: Thyroid carcinoma (papillary type); assay: as above; format: cell-based; details: Homo sapiens, 1 micromolar, read-out: Percentage of inhibition of cell cultures
Procedure: as §5, §6, §7

Colon carcinoma = assay: as above; format: cell-based; details: Homo sapiens, 1 micromolar, read-out: Percentage of inhibition of cell cultures
Procedure: as §5, §6, §7

Leukemia B = assay: as above; format: cell-based; details: Homo sapiens, 1 micromolar, read-out: Percentage of inhibition of cell cultures
Procedure: as §5, §6, §7

[5] = system: Melanoma (Nodular Melanoma); assay: Inhibition of primary tumor cell cultures vs Kras mutation (Example 2); format: cell-based, human; details: Melanoma (Nodular Melanoma), 100 micromolar
Procedure: as §5, §2, §3
The percentages of inhibition are expressed in percentage of variation in relation to control ± standard deviation.

[6] = system: Lung carcinoma (small cell type); assay: Inhibition of primary tumor cell cultures (48 hours) vs NK1 receptor immunostaining (Example 1); format: cell-based; details: Homo sapiens, 1 micromolar, read-out: Percentage of inhibition of cell cultures
Procedure: as §5, §6, §7

Neuroblastoma = assay: as above; format: cell-based; details: Homo sapiens, 1 micromolar, read-out: Percentage of inhibition of cell cultures
Procedure: as §5, §6, §7

[7] = system: Ovarian carcinoma (Adenocarcinoma); assay: Inhibition of primary tumor cell cultures vs Kras mutation (Example 2); format: cell-based, human; details: Ovarian carcinoma (Adenocarcinoma), 100 micromolar
Procedure: (§8) Cell cultures. […] Briefly, small pieces of the tumors were digested into a hyaluronidase solution (Sigma-Aldrich, USA) at a concentration of 1 mg/ml during 15 minutes at 37°C, and then they were treated with 6 mg/ml of collagenase type IV (Invitrogen) during 2 hours at 37°C. Consecutively, cells were washed, and resuspended in the DMEM culture medium with high concentration of glucose (Dulbecco's Modified Eagle's Medium, Invitrogen) supplemented with 1% of antibiotics-antimycotics (Invitrogen) and with 1% of sodium pyruvate (Invitrogen), and the cells were seeded in culture slides at a concentration of 10.000 cells per square centimeter. When cells reached confluence, the adherent cells were separated using sterile trypsin at 0,5% (Invitrogen) and they were used among passages 3 and 9. For the assays shown next, tumor cells were seeded on slides at a concentration of 25.000 cells per well. A total of 6 wells containing the tumor cells were used as survival control. […] All the cultures were kept during 48 hours and later on recollected for their analysis.
as §2, §3, §4

[8] = system: human primary tumor cells; assay: Inhibition of primary tumor cell cultures vs amplification of the gene encoding the NK1 receptor (Example 6; tumor type per table line); format: cell-based; details: 100 micromolar
Procedure: as §8
The presence or absence of the amplification of the gene encoding for the NK1 receptor was determined, and then the cells were cultured in the presence of several antagonists of the NK1 receptor.
For each case, the presence or absence of amplification of the gene encoding for the NK1 receptor was determined.
In order to determine the presence of the amplification (increase in the number of copies) of the gene encoding the NK1 receptor (TAC1R), it was used the comparative genomic hybridization technique (CGH Array). Firstly genomic DNA was extracted from each case. Later, it was performed the marking and hybridization of the DNA of each sample together with DNA of a commercial reference without genomic alterations (from masculine or feminine sex, depending on the gender of the patient from whom the samples were obtained). The Array is Sureprint G3 Human CGH Microarray from the company Agilent was used, with an average separation between probes of 5.3Kb and 4.6Kb for the genes RefSeq. The reading of the microarray was done with the DNA Microarray Scanner G2565CA from Agilent, at a resolution of 3 µm. The analysis of the results was performed with the software Cytogenomics v 2.0.6.0 from Agilent with ADM-2: 6.0; Centralization: ON (Threshold: 6.0, Bin size: 10); Fuzzy zero: ON; Aberration filters: ON (minProbes=5 and minAvgAbsLopRatio= 0,5); Feature Level Filters : ON. The genomic coordinates are coincident with the NCBI36genome (hg18). Cases were distributed in two groups: Group I for those cases without the amplification of the gene encoding the NK1 receptor (locus 2p13.1-p12), and Group II for those cases with amplification of the gene encoding the NK1receptor (locus 2p13.1-p12).
The antibody against NK1 receptor (Table 36) was used at 1/50 concentration. The percentages of inhibition are expressed in percentages of variation in relation to control ± standard deviation.

[9] = Cases with Kras non-mutated (wild type)
[10] = NK1 receptor immunostaining Group 1 (less than 20% of the cells)
[11] = NK1 receptor immunostaining Group 2 (20-80% of the cells)
[12] = NK1 receptor immunostaining Group 3 (more than 80% of the cells)
[13] = NK1 receptor immunostaining Intensity grade 1
[14] = NK1 receptor immunostaining Intensity grade 2
[15] = NK1 receptor immunostaining Intensity grade 3

## Cc1cc(F)ccc1[C@H]1CNCCN1C(=O)N(C)[C@H](C)c1cc(C(F)(F)F)cc(C(F)(F)F)c1 [Vestipitant]
[1]; Cases with Kras mutated
  Percentage of inhibition of cell cultures: 23±4 percentage
[1]; [9]
  Percentage of inhibition of cell cultures: 95±4 percentage
[2]; Cases with Kras mutated
  Percentage of inhibition of cell cultures: 26±4 percentage
[2]; [9]
  Percentage of inhibition of cell cultures: 94±5 percentage
[3]; [10]
  inhibition at 1 µM: 16 ± 3%
[3]; [11]
  inhibition at 1 µM: 45 ± 3%
[3]; [12]
  inhibition at 1 µM: 95 ± 5%
[3]; [13]
  inhibition at 1 µM: 19 ± 4%
[3]; [14]
  inhibition at 1 µM: 46 ± 4%
[3]; [15]
  inhibition at 1 µM: 95 ± 3%
Hodgkin lymphoma; [10]
  inhibition at 1 µM: 14 ± 3%
Hodgkin lymphoma; [11]
  inhibition at 1 µM: 46 ± 3%
Hodgkin lymphoma; [12]
  inhibition at 1 µM: 92 ± 5%
Hodgkin lymphoma; [13]
  inhibition at 1 µM: 16 ± 4%
Hodgkin lymphoma; [14]
  inhibition at 1 µM: 48 ± 3%
Hodgkin lymphoma; [15]
  inhibition at 1 µM: 92 ± 4%
Renal cell carcinoma; [10]
  inhibition at 1 µM: 10 ± 4%
Renal cell carcinoma; [11]
  inhibition at 1 µM: 45 ± 3%
Renal cell carcinoma; [12]
  inhibition at 1 µM: 93 ± 6%
Renal cell carcinoma; [13]
  inhibition at 1 µM: 21 ± 3%
Renal cell carcinoma; [14]
  inhibition at 1 µM: 46 ± 4%
Renal cell carcinoma; [15]
  inhibition at 1 µM: 93 ± 4%
[4]; [10]
  inhibition at 1 µM: 15 ± 3%
[4]; [11]
  inhibition at 1 µM: 47 ± 5%
[4]; [12]
  inhibition at 1 µM: 96 ± 4%
[4]; [13]
  inhibition at 1 µM: 16 ± 2%
[4]; [14]
  inhibition at 1 µM: 47 ± 5%
[4]; [15]
  inhibition at 1 µM: 96 ± 5%
Colon carcinoma; [10]
  inhibition at 1 µM: 12 ± 4%
Colon carcinoma; [11]
  inhibition at 1 µM: 45 ± 3%
Colon carcinoma; [12]
  inhibition at 1 µM: 91 ± 2%
Colon carcinoma; [13]
  inhibition at 1 µM: 18 ± 5%
Colon carcinoma; [14]
  inhibition at 1 µM: 46 ± 4%
Colon carcinoma; [15]
  inhibition at 1 µM: 91 ± 5%
Leukemia B; [10]
  inhibition at 1 µM: 16 ± 5%
Leukemia B; [11]
  inhibition at 1 µM: 47 ± 5%
Leukemia B; [12]
  inhibition at 1 µM: 92 ± 5%
Leukemia B; [13]
  inhibition at 1 µM: 17 ± 2%
Leukemia B; [14]
  inhibition at 1 µM: 47 ± 3%
Leukemia B; [15]
  inhibition at 1 µM: 92 ± 4%
[5]; Cases with Kras mutated
  Percentage of inhibition of cell cultures: 23±5 percentage
[5]; [9]
  Percentage of inhibition of cell cultures: 96±5 percentage
[6]; [10]
  inhibition at 1 µM: 16 ± 3%
[6]; [11]
  inhibition at 1 µM: 46 ± 3%
[6]; [12]
  inhibition at 1 µM: 93 ± 3%
[6]; [13]
  inhibition at 1 µM: 18 ± 3%
[6]; [14]
  inhibition at 1 µM: 45 ± 3%
[6]; [15]
  inhibition at 1 µM: 93 ± 3%
Neuroblastoma; [10]
  inhibition at 1 µM: 17 ± 2%
Neuroblastoma; [11]
  inhibition at 1 µM: 46 ± 3%
Neuroblastoma; [12]
  inhibition at 1 µM: 93 ± 3%
Neuroblastoma; [13]
  inhibition at 1 µM: 16 ± 1%
Neuroblastoma; [14]
  inhibition at 1 µM: 49 ± 5%
Neuroblastoma; [15]
  inhibition at 1 µM: 93 ± 4%
[7]; Cases with Kras mutated
  Percentage of inhibition of cell cultures: 27±5 percentage
[7]; [9]
  Percentage of inhibition of cell cultures: 96±6 percentage
[8]; Breast carcinoma (ductal adenocarcinoma), Cases with amplification of the gene that encodes for the NK1 receptor
  Percentage of inhibition of cell cultures: 94±6 percentage
[8]; Breast carcinoma (ductal adenocarcinoma), Cases without amplification of the gene that encodes for the NK1 receptor
  Percentage of inhibition of cell cultures: 24±3 percentage
[8]; Burkitt Lymphoma, Cases with amplification of the gene that encodes for the NK1 receptor
  Percentage of inhibition of cell cultures: 97±5 percentage
[8]; Burkitt Lymphoma, Cases without amplification of the gene that encodes for the NK1 receptor
  Percentage of inhibition of cell cultures: 23±5 percentage
[8]; Carcinoma of the uterine cervix (Squamous cell carcinoma), Cases with amplification of the gene that encodes for the NK1 receptor
  Percentage of inhibition of cell cultures: 94±6 percentage
[8]; Carcinoma of the uterine cervix (Squamous cell carcinoma), Cases without amplification of the gene that encodes for the NK1 receptor
  Percentage of inhibition of cell cultures: 26±6 percentage
[8]; Colon carcinoma (Adenocarcinoma), Cases with amplification of the gene that encodes for the NK1 receptor
  Percentage of inhibition of cell cultures: 93±3 percentage
[8]; Colon carcinoma (Adenocarcinoma), Cases without amplification of the gene that encodes for the NK1 receptor
  Percentage of inhibition of cell cultures: 24±4 percentage
[8]; Endometrium carcinoma, Cases with amplification of the gene that encodes for the NK1 receptor
  Percentage of inhibition of cell cultures: 95±5 percentage
[8]; Endometrium carcinoma, Cases without amplification of the gene that encodes for the NK1 receptor
  Percentage of inhibition of cell cultures: 23±5 percentage
[8]; Gastric carcinoma (Adenocarcinoma), Cases with amplification of the gene that encodes for the NK1 receptor
  Percentage of inhibition of cell cultures: 94±4 percentage
[8]; Gastric carcinoma (Adenocarcinoma), Cases without amplification of the gene that encodes for the NK1 receptor
  Percentage of inhibition of cell cultures: 25±5 percentage
[8]; Glioma (astrocytoma), Cases with amplification of the gene that encodes for the NK1 receptor
  Percentage of inhibition of cell cultures: 94±7 percentage
[8]; Glioma (astrocytoma), Cases without amplification of the gene that encodes for the NK1 receptor
  Percentage of inhibition of cell cultures: 26±5 percentage
